Assay results reported in patent US20070117770A1, “Human ribosomal DNA (rDNA) and ribosomal RNA (rRNA) nucleic acids and uses thereof” (Cylene Pharmaceuticals, Inc., priority 2005, published 2007).

Columns and labels:
Experiment in all cases: Protein kinase inhibition assay
SAPK2a(h) = SAPK2a(h) (Homo sapiens, UniProt Q16539); assay type: biochemical; details: read-out: percent residual activity of SAPK2a(h)
Procedure: (§1) Certain compounds were tested for activity in protein kinase inhibition assays. All substrates were dissolved and diluted to working stocks in de-ionized water, apart from histone H1 (10× working stock in 20 mM MOPS pH 7.0), PDKtide (10× working stock in 50 mM Tris pH 7.0) ATF2 (which is typically stored at a 20× working stock in 50 mM Tris pH 7.5, 150 mM NaCl, 0.1 mM EGTA, 0.03% Brij-35, 50% glycerol, 1 mM benzamidine, 0.2 mM PMSF and 0.1% R-mercaptoethanol), KKLNRTLSFAEPG (SEQ ID NO:203) and RRRLSFAEPG (SEQ ID NO:204) (50 mM HEPES pH 7.4) and GGEEEEYFELVKKKK (SEQ ID NO:205) (20 mM MOPS pH 7.0). All kinases were pre-diluted to a 10× working concentration prior to addition into the assay. The composition of the dilution buffer for each kinase is detailed below.
In a final reaction volume of 25 μl, SAPK2a (h) (5-10 mU) is incubated with 25 mM Tris pH 7.5, 0.02 mM EGTA, 0.33 mg/ml myelin basic protein, 10 mM MgAcetate and [gamma-33P-ATP] (specific activity approx. 500 cpm/pmol, concentration as required). The reaction is initiated by the addition of the MgATP mix. After incubation for 40 minutes at room temperature, the reaction is stopped by the addition of 5 μl of a 3% phosphoric acid solution. 10 μl of the reaction is then spotted onto a P30 filtermat and washed three times for 5 minutes in 75 mM phosphoric acid and once in methanol prior to drying and scintillation counting.

Aurora-A(h) = Aurora-A(h) (Homo sapiens, UniProt O14965); assay type: biochemical; details: read-out: percent residual activity of Aurora-A(h)
Sequence of Aurora-A(h) (O14965 whole entry): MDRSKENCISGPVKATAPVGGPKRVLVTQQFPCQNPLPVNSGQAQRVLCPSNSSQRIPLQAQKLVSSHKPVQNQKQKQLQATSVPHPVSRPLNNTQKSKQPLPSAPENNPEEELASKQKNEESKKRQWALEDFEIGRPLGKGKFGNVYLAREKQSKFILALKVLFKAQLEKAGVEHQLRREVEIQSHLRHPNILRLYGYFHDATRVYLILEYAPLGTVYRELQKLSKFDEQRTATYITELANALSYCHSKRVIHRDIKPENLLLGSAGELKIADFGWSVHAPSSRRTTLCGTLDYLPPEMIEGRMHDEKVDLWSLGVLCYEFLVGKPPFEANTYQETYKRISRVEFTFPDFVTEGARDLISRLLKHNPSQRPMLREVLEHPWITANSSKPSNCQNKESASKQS
Procedure: as §1
(§2) In a final reaction volume of 25 μl, Aurora-A (h) (5-10 mU) is incubated with 8 mM MOPS pH 7.0, 0.2 mM EDTA, 200 μM LRRASLG (SEQ ID NO:209) (Kemptide), 10 mM MgAcetate and [gamma-33P-ATP] (specific activity approx. 500 cpm/pmol, concentration as required). The reaction is initiated by the addition of the MgATP mix. After incubation for 40 minutes at room temperature, the reaction is stopped by the addition of 5 μl of a 3% phosphoric acid solution. […]

BTK(h) = BTK(h) (Homo sapiens, UniProt Q06187); assay type: biochemical; details: read-out: percent residual activity of BTK(h)
Sequence of BTK(h) (Q06187 whole entry): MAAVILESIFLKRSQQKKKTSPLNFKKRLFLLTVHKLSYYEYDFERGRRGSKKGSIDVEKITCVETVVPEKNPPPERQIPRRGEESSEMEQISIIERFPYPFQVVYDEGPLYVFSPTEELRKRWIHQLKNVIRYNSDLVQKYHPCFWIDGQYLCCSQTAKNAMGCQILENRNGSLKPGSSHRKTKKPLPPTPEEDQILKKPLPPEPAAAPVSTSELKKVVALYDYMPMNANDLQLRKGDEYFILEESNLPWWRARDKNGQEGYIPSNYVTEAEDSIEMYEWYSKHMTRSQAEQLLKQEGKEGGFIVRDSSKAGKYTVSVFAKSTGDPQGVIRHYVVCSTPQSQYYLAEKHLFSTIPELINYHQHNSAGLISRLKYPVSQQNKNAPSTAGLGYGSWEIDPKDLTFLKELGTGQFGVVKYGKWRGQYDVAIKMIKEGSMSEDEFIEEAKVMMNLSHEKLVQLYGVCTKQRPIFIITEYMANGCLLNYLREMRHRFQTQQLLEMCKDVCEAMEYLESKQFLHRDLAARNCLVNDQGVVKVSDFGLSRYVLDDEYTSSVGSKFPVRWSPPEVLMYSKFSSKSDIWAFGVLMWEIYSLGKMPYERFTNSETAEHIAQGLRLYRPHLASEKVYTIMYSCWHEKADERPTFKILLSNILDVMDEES
Procedure: as §1
as §2, with “BTK” for “Aurora-A”, “250” for “200”, “KVEKIGEGTYGVVYK” for “LRRASLG”, “NO:211) (Cdc2 peptide),” for “NO:209) (Kemptide),”

PRK2(h) = PRK2(h) (Homo sapiens, UniProt Q16513); assay type: biochemical; details: read-out: percent residual activity of PRK2(h)
Sequence of PRK2(h) (Q16513 whole entry): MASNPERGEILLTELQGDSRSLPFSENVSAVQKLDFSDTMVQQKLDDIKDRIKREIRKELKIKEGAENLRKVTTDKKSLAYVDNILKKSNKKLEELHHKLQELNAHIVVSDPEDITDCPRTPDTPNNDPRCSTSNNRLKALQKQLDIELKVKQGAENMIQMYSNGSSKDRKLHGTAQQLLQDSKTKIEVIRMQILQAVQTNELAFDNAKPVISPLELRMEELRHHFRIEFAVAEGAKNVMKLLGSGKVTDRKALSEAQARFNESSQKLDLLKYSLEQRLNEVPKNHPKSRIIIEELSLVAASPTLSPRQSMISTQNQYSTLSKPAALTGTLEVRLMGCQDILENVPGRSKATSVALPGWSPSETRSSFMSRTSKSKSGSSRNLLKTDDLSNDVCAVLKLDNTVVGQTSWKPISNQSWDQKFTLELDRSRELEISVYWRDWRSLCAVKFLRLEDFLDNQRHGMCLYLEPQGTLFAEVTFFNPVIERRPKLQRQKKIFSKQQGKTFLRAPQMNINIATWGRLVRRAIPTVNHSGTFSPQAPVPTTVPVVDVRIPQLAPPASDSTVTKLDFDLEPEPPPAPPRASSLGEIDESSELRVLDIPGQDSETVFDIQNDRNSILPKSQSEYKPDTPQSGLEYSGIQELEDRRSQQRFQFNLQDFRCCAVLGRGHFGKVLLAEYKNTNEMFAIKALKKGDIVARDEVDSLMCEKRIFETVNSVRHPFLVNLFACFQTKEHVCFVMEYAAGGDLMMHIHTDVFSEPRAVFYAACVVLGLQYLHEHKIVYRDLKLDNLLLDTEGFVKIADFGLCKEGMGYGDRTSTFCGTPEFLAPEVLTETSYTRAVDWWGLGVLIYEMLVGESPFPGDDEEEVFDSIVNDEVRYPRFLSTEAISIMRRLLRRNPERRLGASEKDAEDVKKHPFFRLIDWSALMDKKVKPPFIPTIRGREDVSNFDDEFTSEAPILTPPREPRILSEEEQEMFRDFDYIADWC
Procedure: as §1
In a final reaction volume of 25 μl, PRK2 (h) (5-10 mU) is incubated with 50 mM Tris pH 7.5, 0.1 mM EGTA, 0.1% R-mercaptoethanol, 30 μM AKRRRLSSLRA (SEQ ID NO:226), 10 mM MgAcetate and [gamma-33P-ATP] (specific activity approx. 500 cpm/pmol, concentration as required). The reaction is initiated by the addition of the MgATP mix. After incubation for 40 minutes at room temperature, the reaction is stopped by the addition of 5 μl of a 3% phosphoric acid solution. […]

Fes(h) = Fes(h) (Homo sapiens, UniProt P07332); assay type: biochemical; details: read-out: percent residual activity of Fes(h)
Sequence of Fes(h) (P07332 whole entry): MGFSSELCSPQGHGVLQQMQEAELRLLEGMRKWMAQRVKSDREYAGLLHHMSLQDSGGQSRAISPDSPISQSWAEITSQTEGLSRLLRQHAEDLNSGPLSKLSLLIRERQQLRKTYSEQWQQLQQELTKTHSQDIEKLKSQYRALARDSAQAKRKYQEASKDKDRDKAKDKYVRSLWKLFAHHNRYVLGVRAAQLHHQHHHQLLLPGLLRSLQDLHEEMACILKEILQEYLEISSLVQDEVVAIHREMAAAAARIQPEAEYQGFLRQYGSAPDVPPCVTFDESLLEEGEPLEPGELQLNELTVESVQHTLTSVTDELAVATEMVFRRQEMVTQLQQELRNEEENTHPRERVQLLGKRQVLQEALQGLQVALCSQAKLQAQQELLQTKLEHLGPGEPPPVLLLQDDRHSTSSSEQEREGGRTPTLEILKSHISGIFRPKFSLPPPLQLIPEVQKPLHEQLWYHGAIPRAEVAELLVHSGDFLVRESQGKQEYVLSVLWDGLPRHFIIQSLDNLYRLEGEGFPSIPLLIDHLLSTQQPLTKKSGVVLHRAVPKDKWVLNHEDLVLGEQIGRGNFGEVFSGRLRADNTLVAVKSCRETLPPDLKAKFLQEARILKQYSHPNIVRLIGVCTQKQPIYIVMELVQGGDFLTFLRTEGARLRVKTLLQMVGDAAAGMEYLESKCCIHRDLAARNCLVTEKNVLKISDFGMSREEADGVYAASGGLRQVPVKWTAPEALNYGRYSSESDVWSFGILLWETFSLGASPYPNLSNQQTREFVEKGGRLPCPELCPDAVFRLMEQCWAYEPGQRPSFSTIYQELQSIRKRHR
Procedure: as §1
(§3) In a final reaction volume of 25 μl, Fes (h) (5-10 mU) is incubated with 8 mM MOPS pH 7.0, 0.2 mM EDTA, 0.1 mg/ml poly(Glu, Tyr) 4:1, 10 mM MgAcetate and [y-33P-ATP] (specific activity approx. 500 cpm/pmol, concentration as required). The reaction is initiated by the addition of the MgATP mix. After incubation for 40 minutes at room temperature, the reaction is stopped by the addition of 5 μl of a 3% phosphoric acid solution. 10 μl of the reaction is then spotted onto a Filtermat A and washed three times for 5 minutes in 75 mM phosphoric acid and once in methanol prior to drying and scintillation counting.

p70S6K(h) = assay type: biochemical, human; details: 2.5 μM
Procedure: as §1
as §3, with “p70S6K” for “Fes”, “100 μM KKRNRTLTV (SEQ ID NO:212),” for “0.1 mg/ml poly(Glu, Tyr) 4:1,”, “[gamma-33P-ATP]” for “[y-33P-ATP]”, “P30 filtermat” for “Filtermat A”

Sequence of SAPK2a(h) (Q16539 whole entry): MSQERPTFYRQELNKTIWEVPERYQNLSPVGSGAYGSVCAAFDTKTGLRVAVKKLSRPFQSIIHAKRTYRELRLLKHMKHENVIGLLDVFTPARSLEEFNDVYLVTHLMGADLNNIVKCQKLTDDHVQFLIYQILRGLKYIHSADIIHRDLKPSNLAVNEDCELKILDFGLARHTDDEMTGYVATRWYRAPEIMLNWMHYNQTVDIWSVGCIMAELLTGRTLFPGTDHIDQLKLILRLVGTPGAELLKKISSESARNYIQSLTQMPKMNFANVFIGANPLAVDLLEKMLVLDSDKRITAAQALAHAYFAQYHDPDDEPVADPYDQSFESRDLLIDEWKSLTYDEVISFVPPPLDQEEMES

remaining activity at 2.5 µM (SAPK2a(h))	remaining activity at 2.5 µM (Aurora-A(h))	remaining activity at 2.5 µM (BTK(h))	remaining activity at 2.5 µM (PRK2(h))	remaining activity at 2.5 µM (Fes(h))	inhibition of p70S6K (p70S6K(h))	percent residual activity of p70S6K(h) (p70S6K(h))	Structure (SMILES)
97%	43%	60%	36%	82%	greater than 80%	18%	CN1CCCC1CCNC(=O)c1cn2c3c(c(N4CCC(c5cnccn5)C4)c(F)cc3c1=O)Oc1cc3ccccc3cc1-2 (stereo not shown) [Compound A-1]
103%	104%	101%	110%	101%	–	97%	CC(=O)N1CCN(c2ccc3c(=O)c(C(=O)NCCN4CCCC4)c4n(C)c5ccccc5n4c3n2)CC1 [Compound B-1]
